Key:
[1] = healthy volunteers, oral, gelatin capsules, 39 mg pyrophosphate/kg
Method: To avoid the unpleasant taste we used capsulated PPi salts instead of water-based solution as the form of delivery. We tested two different capsules: gelatin and cellulose. Subsequently, we determined how PPi is absorbed in individuals affected by PXE compared to its absorption in non-PXE volunteers.
Human studies were conducted in accordance with the Declaration of Helsinki. The oral uptake studies involving healthy human volunteers (female and male) were conducted and all patient samples were handled in an anonymized form. The oral uptake study involving PXE patients involved mutation analysis confirming the diagnosis in PXE patients. The diagnosis of PXE was based on characteristic skin findings, supported by characteristic histopathology, and ocular and vascular involvement.
Gelatin capsules were obtained from Molar Chemicals (Halasztelek, Hungary), cellulose capsules were obtained from Capsuline (Davie, Fla.).
Volunteers and PXE patients (after overnight fasting) were involved in the studies. The duration of ingestion was less than one minute. Blood samples were collected from the vena cubiti before ingestion (0 min) and after 30, 60, 120 and 240 min into CTAD anticoagulated tubes (BD, Franklin Lakes, N.J.), and filtered through Centrisart I 300,000 MWCO filters (Sartorius, Frankfurt, Germany). […]

[2] = system: Abcc6−/− mice; conditions: female Abcc6−/− mice, oral, 10 mM in drinking water
Method: Briefly, mice were kept under routine laboratory conditions with a 12-hour light-dark cycle and ad libitum access to water and chow. Anesthesia was carried out by intraperitoneal injection of the mixture of Zoletil (30 mg/kg, Virbac, France), Xylazine (12.5 mg/kg, Produlab Pharma, The Netherlands) and Butorphanol (3 mg/kg, Richterpharma, Austria) during all procedures.
In this experiment calcification was induced in the myocardium and five days after we determined the Ca^2+-content of the heart.

## O=P([O-])([O-])OP(=O)(O)O.[Na+].[Na+] [Na2H2P2O7, disodium pyrophosphate, reference compound]
[1]
  GI discomfort: reduced to the minimum
[2]
  calcification of the heart (total Ca2+-content) five days after cryo-injury: reduce calcification to the same extent

## O=P([O-])([O-])OP(=O)(O)O.[K+].[K+] [K2H2P2O7, Dipotassium Pyrophosphate]
[2]
  calcification of the heart (total Ca2+-content) five days after cryo-injury: reduce calcification to the same extent

Source: patent publication US20230381223A1, “ORAL PYROPHOSPHATE FOR USE IN REDUCING CALCIFICATION” (PYROGENYX INC., priority 2020, published 2023)
